Assay results from patent publication US20260224557A1, “NRF2 ACTIVATOR” (Ivy Cosmetics Co., Ltd., priority 2023, published 2026).

System: Nrf2
Test: ARE (Antioxidant Response Element)-luciferase reporter assay in ARE-luciferase reporter-stably-expressing HaCaT cell line
Type: cell-based
Conditions: HaCaT ARE-luciferase reporter cells, 24 hours
Protocol: The Nrf2-activating action of conophylline (crystal) which was isolated and purified from Ervatamia microphylla, which is a plant of the Apocynaceae, by the method described in JP4696303B was evaluated by ARE (Antioxidant Response Element)-luciferase reporter assay, which is known as a monitoring system for the Nrf2 antioxidant pathway. Specifically, a plasmid was obtained by inserting a polynucleotide having a sequence in which ARE sequence was repeated twice ([…]: SEQ ID NO: 1) into the multiple cloning site of pNL2.2 [NlucP/Hygro] Vector (Promega Corporation), which is a vector for luciferase reporter assay, and the plasmid was introduced into HaCaT cells (DKFZ) using Cell Line Nucleofector Kit V (Lonza) by electroporation. After 24 hours, by adding hygromycin at a final concentration of 600 μg/mL and selecting drug-resistant cells, an ARE-luciferase reporter-stably-expressing HaCaT cell line having hygromycin resistance was established. […] After 24 hours, the luciferase activities were measured using Nano-Glo Luciferase Assay System (Promega Corporation) according to the protocol, and thus the Nrf2-activating action of conophylline was evaluated.

| Structure (SMILES) | luciferase activity when Nrf2 inhibitor ML-385 was added together with conophylline (ML-385 20 μM added together with conophylline 1 μg/mL) | luciferase activity (Nrf2-activating action), relative to DMSO control regarded as 1 (conophylline at various final concentrations, FIG. 1) |
| --- | --- | --- |
| Cc1ccccc1C(=O)N1CCc2cc(-c3nc(NC(=O)Cc4ccc5c(c4)OCO5)sc3C)ccc21 [ML-385] | decreased considerably | – |
| CC[C@@]12CC(C(=O)OC)=C3Nc4cc5c(cc4[C@@]34CCN(C[C@H]3O[C@H]31)[C@@H]24)[C@@H]1[C@H](O5)[C@@H](O)[C@@]2(CC)CC(C(=O)OC)=C3Nc4c(cc(O)c(OC)c4OC)[C@@]34CCN1[C@@H]24 [conophylline] | – | enhanced the luciferase activity in a concentration-dependent manner |
